Assay results from patent US9808535B2, “Conjugates for protection from nephrotoxic active substances” (Merck Patent GmbH, priority 2013, dated 2017).
Residues, ends and D or L forms follow the SMILES beside them. ξ: configuration not given here. *: point of attachment. Lipoyl(6ξ) = O=C(CCCCC1CCSS1)*

Key:
[1] = infusion, 740 to 900 mg/m^2 of body surface area; cited from earlier work
[2] = mouse, in vivo, iv

Structure (SMILES) | arterial hypotension as severe side effect [1] | kidney specificity [2]
NCCCNCCSP(=O)(O)O [Amifostin] | In over half of patients | –
NCCCCC(NC(=O)C(CCC(=O)O)NC(=O)C(CCC(=O)O)NC(=O)C(CCC(=O)O)NC(=O)C(CCCCNC(=O)CCCCC1CCSS1)NC(=O)C(CCCCN)NC(=O)C(CCCCN)NC(=O)C(CCC(=O)O)NC(=O)C(CCC(=O)O)NC(=O)C(CCC(=O)O)NC(=O)C(CCCCNC(=O)CCCCC1CCSS1)NC(=O)C(CCCCN)NC(=O)C(CCCCN)NC(=O)C(CCC(=O)O)NC(=O)C(CCC(=O)O)NC(=O)C(CCC(=O)O)NC(=O)C(CCCCNC(=O)CCCCC1CCSS1)NC(=O)C(CCCCN)NC(=O)C(CCCCN)NC(=O)C(N)Cc1ccc(O)cc1)C(N)=O (centres unmarked) [y(KKKe(lipoic acid)EEE)3K] (H-YKKK(Lipoyl(6ξ))EEEKKK(Lipoyl(6ξ))EEEKKK(Lipoyl(6ξ))EEEK-NH2; configuration not given here) | – | high kidney specificity
